From patent publication US20260159512A1, “BCAT2 INHIBITORS” (AGIOS PHARMACEUTICALS, INC., priority 2021, published 2026) come the findings set out here.

One assay addresses T1, BCAT2 (Homo sapiens, UniProt O15382).
T1 sequence (O15382 28-392): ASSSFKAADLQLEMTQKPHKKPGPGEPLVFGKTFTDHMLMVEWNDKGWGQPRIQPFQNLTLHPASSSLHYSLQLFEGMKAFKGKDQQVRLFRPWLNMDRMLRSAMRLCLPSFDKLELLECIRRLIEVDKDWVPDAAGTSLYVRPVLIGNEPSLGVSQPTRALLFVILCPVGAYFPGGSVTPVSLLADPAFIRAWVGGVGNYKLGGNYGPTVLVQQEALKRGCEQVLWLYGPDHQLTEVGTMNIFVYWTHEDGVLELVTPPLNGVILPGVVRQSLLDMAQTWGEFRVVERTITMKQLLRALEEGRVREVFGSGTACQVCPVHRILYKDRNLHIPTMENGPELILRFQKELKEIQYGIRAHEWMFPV
In words: BCAT2 in vitro enzyme inhibition assay (resazurin/diaphorase-coupled fluorescence). The note with it: average where tested multiple times. It is filed as biochemical. The gist of the method:
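Coupled fluorescence readout: glutamate formed from L-leucine/α-ketoglutarate transamination drives GDH/NAD/diaphorase reduction of resazurin (Ex 540/Em 590). Human BCAT2 was first exposed 1 h at room temperature to compound, top final 100 μM in 3-fold, 10-point series; substrate reaction ran 1 h before SDS quench, in technical duplicate with DMSO max and enzyme-free min controls.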

For the next assay, the target named is T2, hBCAT1 (Homo sapiens, UniProt P54687).
T2 sequence (P54687 1-386): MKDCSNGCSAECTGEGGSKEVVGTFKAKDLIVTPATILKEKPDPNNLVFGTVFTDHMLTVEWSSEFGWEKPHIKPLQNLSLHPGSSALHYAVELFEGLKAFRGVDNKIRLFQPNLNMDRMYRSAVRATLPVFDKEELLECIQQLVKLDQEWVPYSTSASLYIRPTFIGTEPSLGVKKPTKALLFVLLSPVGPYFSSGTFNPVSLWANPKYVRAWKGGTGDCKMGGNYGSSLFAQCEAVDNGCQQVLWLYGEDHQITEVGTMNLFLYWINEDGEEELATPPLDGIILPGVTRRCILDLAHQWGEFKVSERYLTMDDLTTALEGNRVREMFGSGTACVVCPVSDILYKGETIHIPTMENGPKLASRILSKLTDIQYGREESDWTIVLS
In words: BCAT1 in vitro enzyme inhibition assay (resazurin/diaphorase-coupled fluorescence). The class given is biochemical. The conditions noted are these: average where tested multiple times. The method, then: BCAT1 In Vitro Enzyme Inhibition Assay
Meanwhile the Substrate Mix was prepared.
Test Compound Preparation:
Test compounds were prepared at 50× final concentration in DMSO, 1 to 3 dilutions were made for 10 points. The compounds were added to the assay as a 1 to 50 dilution (1 μL in 50 μL) to yield a top assay final concentration of 100 μM, decreasing 3-fold for 10 points. […] All tests were performed in technical duplicate.
Where a compound was tested multiple times, the average value of the tests is reported.

pIC50: −log10 of the molar value.

For `Cc1cn(-c2cc3c(cn2)nc(-c2ccccn2)n3[C@@H]2CCC[C@H](NC(=O)c3ccc(Br)s3)C2)nn1` [Example 40, 5-bromo-N-((1S,3R)-3-(6-(4-methyl-1H-1,2,3-triazol-1-yl)-2-(pyridin-2-yl)-1H-imidazo[4,5-c]pyridin-1-yl)cyclohexyl)thiophene-2-carboxamide], the figures for the negative-log IC50 (pIC50) at BCAT2 and at hBCAT1 were at least 7.00 and 5.30 to 6.00, respectively.

As to `Cc1nc2cnc(-n3nccn3)cc2n1[C@@H]1CCC[C@H](NC(=O)c2ccc(Br)s2)C1` [Example 51, 5-bromo-N-((1S,3R)-3-(2-methyl-6-(2H-1,2,3-triazol-2-yl)-1H-imidazo[4,5-c]pyridin-1-yl)cyclohexyl)thiophene-2-carboxamide], the pIC50 at BCAT2 was below 6.00; against hBCAT1 it was below 5.30.

In the case of `O=C(N[C@H]1CCC[C@@H](n2c(-c3ncccc3F)nc3cnc(N4CCNC4=O)cc32)C1)c1ncc(C(F)F)s1` [Example 54, 5-(difluoromethyl)-N-((1S,3R)-3-(2-(3-fluoropyridin-2-yl)-6-(2-oxoimidazolidin-1-yl)-1H-imidazo[4,5-c]pyridin-1-yl)cyclohexyl)thiazole-2-carboxamide], the pIC50 on BCAT2 is at least 7.00; on hBCAT1 it was below 5.30.

With `O=C(N[C@H]1CCC[C@@H](n2c(-n3cccn3)nc3cnc(-n4ccnn4)cc32)C1)c1ncc(C(F)F)s1` [Example 57, N-((1S,3R)-3-(2-(1H-pyrazol-1-yl)-6-(1H-1,2,3-triazol-1-yl)-1H-imidazo[4,5-c]pyridin-1-yl)cyclohexyl)-5-(difluoromethyl)thiazole-2-carboxamide], the results for the pIC50 against BCAT2 and on hBCAT1 were 6.00 to 6.30 and below 5.30, respectively.

With `CC(C)(O)c1cnn(-c2cc3c(cn2)nc(-c2ccccn2)n3[C@@H]2CCC[C@H](NC(=O)c3ncc(C(F)F)s3)C2)n1` [Example 70, 5-(difluoromethyl)-N-((1S,3R)-3-(6-(4-(2-hydroxypropan-2-yl)-2H-1,2,3-triazol-2-yl)-2-(pyridin-2-yl)-1H-imidazo[4,5-c]pyridin-1-yl)cyclohexyl)thiazole-2-carboxamide], the pIC50 against BCAT2 was at least 7.00; against hBCAT1 it was below 5.30.

On to `CC(C)(O)c1nc2cnc(-n3cncn3)cc2n1[C@@H]1CCC[C@H](NC(=O)c2ccc(Br)s2)C1` [Example 92, 5-bromo-N-((1S,3R)-3-(2-(2-hydroxypropan-2-yl)-6-(1H-1,2,4-triazol-1-yl)-1H-imidazo[4,5-c]pyridin-1-yl)cyclohexyl)thiophene-2-carboxamide], for which the pIC50 against BCAT2 was below 6.00; on hBCAT1 it was below 5.30.

Take `O=C(NC1CCC(n2c(-c3ccccn3)nc3cnc(-n4nccn4)cc32)C1)c1ccc(Br)s1` (stereo not shown) [Example 93, 5-bromo-N-(3-(2-(pyridin-2-yl)-6-(2H-1,2,3-triazol-2-yl)-1H-imidazo[4,5-c]pyridin-1-yl)cyclopentyl)thiophene-2-carboxamide]: the values for the pIC50 on BCAT2 and at hBCAT1 were 6.30 to 7.00 and below 5.30, respectively.

Take `O=C(NC1CCC(n2c(-c3ccccn3)nc3cnc(-n4ccnn4)cc32)C1)c1ccc(Br)s1` (stereo not shown) [Example 94, 5-bromo-N-(3-(2-(pyridin-2-yl)-6-(1H-1,2,3-triazol-1-yl)-1H-imidazo[4,5-c]pyridin-1-yl)cyclopentyl)thiophene-2-carboxamide]: the pIC50 at BCAT2 is below 6.00; against hBCAT1, below 5.30.

Turning to `O=C(N[C@H]1CCC[C@@H](n2c(-c3ccccn3)nc3cc(-n4cncn4)ncc32)C1)c1ccc(Br)s1` [Example 150, 5-bromo-N-((1S,3R)-3-(2-(pyridin-2-yl)-6-(1H-1,2,4-triazol-1-yl)-3H-imidazo[4,5-c]pyridin-3-yl)cyclohexyl)thiophene-2-carboxamide], the pIC50 against BCAT2 is 6.00 to 6.30; against hBCAT1 it was below 5.30.

Consider `O=C(N[C@H]1CCC[C@@H](n2c(-c3ccccn3)nc3cc(-n4nccn4)ncc32)C1)c1ccc(Br)s1` [Example 151, 5-bromo-N-((1S,3R)-3-(2-(pyridin-2-yl)-6-(2H-1,2,3-triazol-2-yl)-3H-imidazo[4,5-c]pyridin-3-yl)cyclohexyl)thiophene-2-carboxamide], for which the pIC50 at BCAT2 was at least 7.00; against hBCAT1 it was below 5.30.

Take `C#Cc1ccc(C(=O)N[C@H]2CCC[C@@H](n3c(-c4ccccn4)nc4cc(-c5cnco5)ncc43)C2)s1` [Example 153, 5-ethynyl-N-((1S,3R)-3-(6-(oxazol-5-yl)-2-(pyridin-2-yl)-3H-imidazo[4,5-c]pyridin-3-yl)cyclohexyl)thiophene-2-carboxamide]: the pIC50 at BCAT2 is 6.30 to 7.00; against hBCAT1 it was below 5.30.

With `O=C(N[C@H]1CCC[C@@H](n2c(-c3ccccn3)nc3cc(-c4cnco4)ncc32)C1)c1ccc(Br)s1` [Example 154, 5-bromo-N-((1S,3R)-3-(6-(oxazol-5-yl)-2-(pyridin-2-yl)-3H-imidazo[4,5-c]pyridin-3-yl)cyclohexyl)thiophene-2-carboxamide], the pIC50 at BCAT2 was 6.00 to 6.30; on hBCAT1 it was below 5.30.

As to `O=C(NC1CCCC(n2c(-c3ccccn3)nc3cc(-c4ncon4)ncc32)C1)c1ccc(Br)s1` (stereo not shown) [Example 155, N-(3-(6-(1,2,4-oxadiazol-3-yl)-2-(pyridin-2-yl)-3H-imidazo[4,5-c]pyridin-3-yl)cyclohexyl)-5-bromothiophene-2-carboxamide], the values for the pIC50 against BCAT2 and against hBCAT1 were at least 7.00 and 5.30 to 6.00, respectively.

Turning to `Cn1cc(-c2cc3nc(-c4ccccn4)n(C4CCCC(NC(=O)c5ccc(Br)s5)C4)c3cn2)cn1` (stereo not shown) [Example 156, 5-bromo-N-(3-(6-(1-methyl-1H-pyrazol-4-yl)-2-(pyridin-2-yl)-3H-imidazo[4,5-c]pyridin-3-yl)cyclohexyl)thiophene-2-carboxamide], the pIC50 against BCAT2 is below 6.00; on hBCAT1 it was below 5.30.

Take `O=C(NC1CCCC(n2c(-c3ccccn3)nc3cc(-c4nnco4)ncc32)C1)c1ccc(Br)s1` (stereo not shown) [Example 157, N-(3-(6-(1,3,4-oxadiazol-2-yl)-2-(pyridin-2-yl)-3H-imidazo[4,5-c]pyridin-3-yl)cyclohexyl)-5-bromothiophene-2-carboxamide]: the pIC50 against BCAT2 is at least 7.00; at hBCAT1 it was 5.30 to 6.00.

For `C[C@@H]1CCCN1c1cc2c(cn1)nc(-c1ccccc1F)n2[C@@H]1CCC[C@H](NC(=O)c2ncc(Cl)s2)C1` [Example 195, 5-chloro-N-((1S,3R)-3-(2-(2-fluorophenyl)-6-((R)-2-methylpyrrolidin-1-yl)-1H-imidazo[4,5-c]pyridin-1-yl)cyclohexyl)thiazole-2-carboxamide], the figures for the pIC50 against BCAT2 and on hBCAT1 were 6.30 to 7.00 and 5.30 to 6.00, respectively.

For the compound `CC(C)Cc1nc2cnc(-c3ccccc3F)cc2n1[C@@H]1CCC[C@H](NC(=O)c2ncc(Cl)s2)C1` [Example 206, 5-chloro-N-((1S,3R)-3-(6-(2-fluorophenyl)-2-isobutyl-1H-imidazo[4,5-c]pyridin-1-yl)cyclohexyl)thiazole-2-carboxamide], the values for the pIC50 at BCAT2 and on hBCAT1 were 6.30 to 7.00 and below 5.30, respectively.

With `O=C(N[C@H]1CCC[C@@H](n2c(-c3ccccc3F)nc3cnc(-c4c(F)cccc4F)cc32)C1)c1ncc(Cl)s1` [Example 207, 5-chloro-N-((1S,3R)-3-(6-(2,6-difluorophenyl)-2-(2-fluorophenyl)-1H-imidazo[4,5-c]pyridin-1-yl)cyclohexyl)thiazole-2-carboxamide], the results for the pIC50 against BCAT2 and on hBCAT1 were 6.30 to 7.00 and below 5.30, respectively.

`Cn1ccc(Oc2cc3c(cn2)nc(-c2ncccc2F)n3[C@@H]2CCC[C@H](NC(=O)c3ncc(C(F)F)s3)C2)n1` [Example 268, 5-(difluoromethyl)-N-((1S,3R)-3-(2-(3-fluoropyridin-2-yl)-6-((1-methyl-1H-pyrazol-3-yl)oxy)-1H-imidazo[4,5-c]pyridin-1-yl)cyclohexyl)thiazole-2-carboxamide]: the pIC50 on BCAT2 is 6.00 to 6.30; at hBCAT1, below 5.30.

For the compound `CC(=O)N1CC(NC(=O)c2ccc(Br)s2)CC(n2c(-c3ccccn3)nc3cc(-c4nnco4)ccc32)C1` (stereo not shown) [Example 282, N-(5-(5-(1,3,4-oxadiazol-2-yl)-2-(pyridin-2-yl)-1H-benzo[d]imidazol-1-yl)-1-acetylpiperidin-3-yl)-5-bromothiophene-2-carboxamide], the pIC50 on BCAT2 was 6.30 to 7.00; at hBCAT1 it was below 5.30.
